Experiment: Stability test of sample solutions under exposure to fluorescent light (HPLC peak area)
Assay type: physicochemical
Conditions: acetonitrile sample solution (HαS 0.26 mg/mL, compound 5 0.49 mg/mL), room temperature, 24 hours under fluorescent light
Experimental: (HPLC Analysis Conditions)
Column: TSK-GEL 80TS (φ4.6 mm×150 mm) (Tosoh, Japan); column temperature: 40° C.; flow rate: 1.0 mL/min; measurement wavelength: 200 to 400 nm; mobile phase: Liquid A acetonitrile, Liquid B 0.1% Na2S2O3 aqueous solution (Liquid A: 40%, Liquid B: 60%); and measurement mode: isocratic mode.
HαS (27.6 mg) and the compound 5 (50.4 mg) were diluted to 100 mL with anhydrous acetonitrile (HPLC grade) to prepare 0.26 mg/mL and 0.49 mg/mL sample solutions. The sample solutions, dispensed in 50 mL aliquots, were allowed to stand at room temperature for 24 hours under exposure to fluorescent light. Quantitative analysis was performed under the above HPLC analysis conditions to measure peak area values of the HαS and the diene iron complex compound (compound 5).

Molecule | peak area value (content) relative to initial level after light exposure
tricarbonyl[(8,9,10,11-η)-(2E,6Z,8E,10E)-N-(2-hydroxy-2-methylpropyl)dodeca-2,6,8,10-tetraenamide]iron [compound 5] | approximately 80%
C/C=C/C=C/C=C\CC/C=C/C(=O)NCC(C)(C)O [HαS, (2E,6Z,8E,10E)-N-(2-hydroxy-2-methylpropyl)dodeca-2,6,8,10-tetraenamide] | approximately 10%
